1 compound from PMC6253949, “The Inhibitory Action of Kohamaic Acid A Derivatives on Mammalian DNA Polymerase β” (Molecules, 2008) can be followed below.

Where only a bound is given, the exact number is not on record here.

Assay type in all cases: biochemical
For assay [1], the target named is T1, T4 Polynucleotide kinase (Enterobacteria phage T4, UniProt P06855).
T1 construct: purchased Takara (Kyoto, Japan)
Briefly: T4 polynucleotide kinase assay. From the text:
(§1) Pol α was purified from calf thymus by immuno-affinity column chromatography as described by Tamai et al.. Recombinant rat pol β was purified from E. coli JMpβ5 as described by Date et al.. The human pol γ catalytic gene was cloned into pFastBac. Histidine-tagged enzyme was expressed using the BAC-TO-BAC HT Baculovirus Expression System according to the supplier's manual (LIFE TECHNOLOGIES, MD, USA) and purified using ProBoundresin (Invitrogen Japan, Tokyo, Japan). Human pols δ and ε were purified by the nuclear fractionation of human peripheral blood cancer cells (Molt-4) using the second subunit of pols δ and ε-conjugated affinity column chromatography, respectively. Recombinant human pols η and ι tagged with His6 at their C-terminal were expressed in SF9 insect cells using the baculovirus expression system, and were purified as described previously. A truncated form of pol κ (i.e., hDINB1DC) with 6 x His-tags attached at the C-terminal was overproduced using the BAC-to-BAC Baculovirus Expression System kit (GIBCO BRL, MD, USA) and purified as described previously. […]
The primase activity of calf pol α, the activities of T7 RNA polymerase, T4 polynucleotide kinase and bovine DNase I were measured in standard assays according to the manufacturer's specifications as described by Tamiya-Koizumi et al., Nakayama et al., Soltis et al., and Lu and Sakaguchi, respectively.

Assay [2] has as its target T2, Taq DNA polymerase (Thermus aquaticus, UniProt P19821).
T2 construct: purchased Takara (Kyoto, Japan)
Briefly: DNA polymerase assay, Taq pol. To be noted: incubated at 74 °C.
Source text: as §1
(§2) For pols, poly(dA)/oligo(dT)12-18 (A/T = 2/1) and dTTP were used as the DNA template-primer and nucleotide (i.e., dNTP) substrate, respectively. […] Activity without the inhibitor was considered 100%, and the remaining activity at each concentration of the inhibitor was determined relative to this value. […]

Assay [3] deals with T3, Human DNA polymerase κ (Homo sapiens, UniProt Q9UBT6).
T3 construct: A truncated form of pol κ (i.e., hDINB1DC); 6xHis (C); made in house; host or cells: baculovirus expression system (insect cells)
T3 sequence (Q9UBT6 1-560 limits assumed): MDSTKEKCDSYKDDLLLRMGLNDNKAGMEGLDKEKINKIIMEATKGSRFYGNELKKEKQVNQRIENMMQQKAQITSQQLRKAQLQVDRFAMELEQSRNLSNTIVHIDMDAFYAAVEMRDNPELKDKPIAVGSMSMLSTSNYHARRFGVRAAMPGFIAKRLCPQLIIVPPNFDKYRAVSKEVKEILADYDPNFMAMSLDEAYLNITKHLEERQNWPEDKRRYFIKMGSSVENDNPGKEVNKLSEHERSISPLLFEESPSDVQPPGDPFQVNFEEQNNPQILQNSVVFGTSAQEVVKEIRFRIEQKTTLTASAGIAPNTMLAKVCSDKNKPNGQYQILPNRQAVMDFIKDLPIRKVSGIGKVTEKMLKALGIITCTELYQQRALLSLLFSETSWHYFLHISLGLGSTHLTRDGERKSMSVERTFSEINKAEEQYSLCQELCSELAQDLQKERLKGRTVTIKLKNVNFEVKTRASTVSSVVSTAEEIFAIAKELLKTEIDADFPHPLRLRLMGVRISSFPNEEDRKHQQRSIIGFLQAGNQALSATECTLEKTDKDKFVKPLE
Briefly: DNA polymerase assay, human pol κ.
Source text: as §1, §2

For assay [4], the target named is T4, Human DNA polymerase λ (Homo sapiens, UniProt Q9UGP5).
T4 construct: His tag; made in house; host or cells: E. coli (from the title of the cited method)
T4 sequence (Q9UGP5 1-575): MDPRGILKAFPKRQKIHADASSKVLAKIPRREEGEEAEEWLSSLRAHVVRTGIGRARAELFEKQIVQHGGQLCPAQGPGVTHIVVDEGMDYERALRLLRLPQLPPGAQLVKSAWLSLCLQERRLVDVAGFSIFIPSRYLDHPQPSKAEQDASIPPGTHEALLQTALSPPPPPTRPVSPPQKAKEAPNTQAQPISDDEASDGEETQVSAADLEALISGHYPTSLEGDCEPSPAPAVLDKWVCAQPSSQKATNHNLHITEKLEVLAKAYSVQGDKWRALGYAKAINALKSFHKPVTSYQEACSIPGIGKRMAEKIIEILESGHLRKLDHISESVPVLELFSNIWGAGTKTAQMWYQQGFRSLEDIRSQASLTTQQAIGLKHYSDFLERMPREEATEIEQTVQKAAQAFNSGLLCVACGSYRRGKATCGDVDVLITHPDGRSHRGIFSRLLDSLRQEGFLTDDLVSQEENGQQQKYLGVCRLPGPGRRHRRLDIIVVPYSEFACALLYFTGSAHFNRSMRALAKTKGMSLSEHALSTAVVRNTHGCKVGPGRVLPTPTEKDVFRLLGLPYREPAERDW
Briefly: DNA polymerase assay, human pol λ.
Source text: as §1, §2

Broadly, the IC50 is the midpoint of a concentration-inhibition curve.

T1 sequence (P06855 whole entry): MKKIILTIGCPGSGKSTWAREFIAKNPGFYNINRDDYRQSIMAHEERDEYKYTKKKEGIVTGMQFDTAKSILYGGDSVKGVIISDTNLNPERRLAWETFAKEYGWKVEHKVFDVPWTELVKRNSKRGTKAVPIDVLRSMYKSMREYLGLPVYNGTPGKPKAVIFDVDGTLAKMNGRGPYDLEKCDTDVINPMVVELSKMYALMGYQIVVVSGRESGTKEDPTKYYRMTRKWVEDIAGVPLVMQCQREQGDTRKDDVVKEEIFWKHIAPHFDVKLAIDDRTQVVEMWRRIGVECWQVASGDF
T2 sequence (P19821 whole entry): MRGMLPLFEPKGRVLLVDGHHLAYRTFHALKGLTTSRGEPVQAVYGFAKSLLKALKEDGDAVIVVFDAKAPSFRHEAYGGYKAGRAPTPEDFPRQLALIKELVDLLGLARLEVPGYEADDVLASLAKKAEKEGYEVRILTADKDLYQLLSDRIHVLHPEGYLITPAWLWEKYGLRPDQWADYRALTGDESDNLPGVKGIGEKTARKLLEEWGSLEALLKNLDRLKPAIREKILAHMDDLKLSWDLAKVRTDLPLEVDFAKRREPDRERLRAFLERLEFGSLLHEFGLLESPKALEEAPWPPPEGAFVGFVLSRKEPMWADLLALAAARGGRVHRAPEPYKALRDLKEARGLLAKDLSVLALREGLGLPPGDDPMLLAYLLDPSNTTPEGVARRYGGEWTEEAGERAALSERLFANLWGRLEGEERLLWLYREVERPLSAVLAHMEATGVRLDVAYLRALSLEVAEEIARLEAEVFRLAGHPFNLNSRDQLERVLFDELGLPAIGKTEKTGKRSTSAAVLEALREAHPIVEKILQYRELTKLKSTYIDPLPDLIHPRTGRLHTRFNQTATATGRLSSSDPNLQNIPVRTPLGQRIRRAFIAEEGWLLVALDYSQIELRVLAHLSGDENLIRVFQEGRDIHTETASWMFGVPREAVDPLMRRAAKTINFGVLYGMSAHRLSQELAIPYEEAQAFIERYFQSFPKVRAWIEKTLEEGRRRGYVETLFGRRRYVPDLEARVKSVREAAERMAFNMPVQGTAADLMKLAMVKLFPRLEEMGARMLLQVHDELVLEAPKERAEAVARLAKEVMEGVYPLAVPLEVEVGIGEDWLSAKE

With `CC1=CC[C@H]2C(C)(C)CCC[C@]2(C)[C@H]1CCCCCCCCCCCCCCCCC(=O)O` (relative stereo) [compound 11, (1S*,4aS*,8aS*)-17-(1,4,4a,5,6,7,8,8a-octahydro-2,5,5,8a-tetramethylnaphthalen-1-yl)heptadecanoic acid], the IC50 was more than 200 µM in assay [1], more than 200 µM in assay [2], 7.2 ± 0.36 µM in assay [3] and 4.67 ± 0.23 µM in assay [4]. Also, the “Kinetic mode of inhibition” value in assay [4] (with respect to both the DNA template-primer and the dNTP substrate) was “competitive”.
